Assays:
[1] = DSC of frozen product of compound-containing aqueous solution (glass transition temperature); type: physicochemical; conditions: frozen product of Table 1 formulation
Description: The temperature of the annealing step may be determined on the basis of the glass transition temperature of the frozen product of the compound (1)-containing aqueous solution obtained through the freezing step. Specifically, the temperature of the frozen product is elevated to a level equal to or higher than the glass transition temperature thereof, and then maintained for a predetermined period of time. The glass transition temperature of the frozen product may be determined through, for example, DSC of the frozen product, and this DSC may be performed according to a generally employed method. The glass transition temperature of frozen products is varied in accordance with, for example, the compositional proportions of ingredients of starting solutions for the products. Therefore, different frozen products are subjected to DSC for determination of the glass transition temperature thereof.
For example, in the DSC chart of the frozen product containing compound (I) and pH-adjusting agents having a formulation shown in Table 1, the peak corresponding to the glass transition temperature of the frozen product rises at about −14.0° C. (FIG. 5). […] Therefore, when the annealing step is performed at a temperature equal to or higher than this temperature, the annealing effect is expected to be attained.

[2] = tested on: drug-resistant Gram-positive bacteria such as methicillin-resistant staphylococci, penicillin-resistant pneumococci, and vancomycin-resistant enterococci; conditions: cited from earlier work
[3] = Reconstitution time of lyophilized preparation (with vs without annealing step); type: physicochemical; conditions: for reconstitution time of lyophilized preparation: lyophilized preparation (20 mg/mL, pH-adjusting agent only) prepared with an annealing step vs without, water for injection 10 mL, moderate shaking, FIG. 8
Description: After a drug solution had been prepared in a manner similar to that described above, the solution was charged into a container and frozen under the conditions shown in Table 2, and then was lyophilized in a manner similar to that described above, followed by measurement of the time required for reconstitution (hereinafter the time may be referred to as a “reconstitution time”). The state observed about 30 seconds after injection of a liquid for reconstitution is shown in FIG. 2 (method without annealing step) or FIG. 3 (method with an annealing step).
Lyophilization was performed under varied annealing conditions (e.g., temperature and maintenance time for an annealing step) as shown in Table 3. […] Reconstitution time was measured through the following procedure: after completion of lyophilization, water for injection was added to a vial in an amount equal to that of the liquid charged into the vial, followed by moderate shaking, and the time required for complete dissolution of the content of the vial was measured.
Water for injection (10 mL) was added to a vial, followed by moderate shaking, and the time required for complete dissolution of the content of the vial was measured.

drug-resistant bacteria = conditions: cited from earlier work

| reconstitution time of lyophilized preparation [3] | SMILES | other results |
| --- | --- | --- |
| – | COc1c(N2CC[C@@H](C3(N)CC3)C2)ccc2c(=O)c(C(=O)O)cn([C@@H]3C[C@@H]3F)c12 [compound (I), 7-[3-(R)-(1-aminocyclopropyl)pyrrolidin-1-yl]-1-[2-(S)-fluoro-1-(R)-cyclopropyl]-1,4-dihydro-8-methoxy-4-oxoquinoline-3-carboxylic acid] | temperature at which the glass transition peak starts (DSC) [1]: about −17 °C; antibacterial activity [2]: high antibacterial activity; reconstituting property of lyophilized cake ([3]; Table 1 formulation, frozen product maintained between glass transition temperature and a temperature at which it does not thaw): improved reconstituting property |
| reduced reconstitution time | N[C@@H]1CN(c2c(F)cc3c(=O)c(C(=O)O)cn([C@@H]4C[C@@H]4F)c3c2Cl)CC12CC2 [sitafloxacin, (−)-7-[(7S)-7-amino-5-azaspiro[2.4]heptan-5-yl]-8-chloro-6-fluoro-1-[(1R,2S)-2-fluoro-1-cyclopropyl]-1,4-dihydro-4-oxo-3-quinolinecarboxylic acid sesquihydrate] | – |
| reduced reconstitution time | CC1COc2c(N3CCN(C)CC3)c(F)cc3c(=O)c(C(=O)O)cn1c23 (racemic) [ofloxacin, (±)-9-fluoro-2,3-dihydro-3-methyl-10-(4-methyl-1-piperazinyl)-7-oxo-7H-pyrido[1,2,3-de][1,4]benzoxazine-6-carboxylic acid] | – |
| reduced reconstitution time | C[C@H]1COc2c(N3CCN(C)CC3)c(F)cc3c(=O)c(C(=O)O)cn1c23 [levofloxacin, (−)-(S)-9-fluoro-2,3-dihydro-3-methyl-10-(4-methyl-1-piperazinyl)-7-oxo-7H-pyrido[1,2,3-de][1,4]benzoxazine-6-carboxylic acid hemihydrate] | – |

| SMILES | reconstitution time of lyophilized preparation [3] | other results |
| --- | --- | --- |
| COc1c(N2CC3(CC3)[C@](C)(N)C2)c(F)cc2c(=O)c(C(=O)O)cn([C@@H]3C[C@@H]3F)c12 [compound (II), (+)-7-[(7S)-7-amino-7-methyl-5-azaspiro[2.4]heptan-5-yl]-6-fluoro-1-[(1R,2S)-2-fluoro-1-cyclopropyl]-1,4-dihydro-8-methoxy-4-oxo-3-quinolinecarboxylic acid hemihydrate] | reduced reconstitution time | antibacterial activity (drug-resistant bacteria): excellent antibacterial activity |
